Data as given in ChEMBL document CHEMBL1130443, “Enhanced DNA photocleavage and binding properties of sapphyrin-polyamine conjugates” (Bioorg Med Chem Lett, 1997).

Tests used:
Assay type in all cases: nucleic-acid assay
Nucleic Acid [1] = assay: The C50 value refers to the concentration of compound required to displace 50% of the ethidium bromide from the DNA.; details: Bos taurus
Nucleic Acid [2] = assay: Compound was measured for the inhibition of DNA cleavage against […] plasmid in the presence of 0.2 M sodium dodecyl sulfate(SDS).
Nucleic Acid [3] = assay: Compound was measured for the inhibition of DNA cleavage against […] plasmid in the presence of 2M NaCl.
Nucleic Acid [4] = assay: Compound was measured for the inhibition of DNA cleavage against […] plasmid in the presence of 0.2 M sodium dodecyl sulfate (SDS).

Row | SMILES | C50 (Nucleic Acid [1]) [µM] | inhibition (Nucleic Acid [2]) [%] | inhibition (Nucleic Acid [3]) [%] | inhibition (Nucleic Acid [4]) [%]
1 | CCC1=C(CC)c2cc3[nH]c(cc4[nH]c(c(C)c4CC)c4[nH]c(cc5nc(cc1n2)C(CCC(=O)NCCOCCOCCN)=C5C)c(CC)c4C)c(C)c3CCC(=O)NCCOCCOCCN | 0.062 | 31 | 66 | 
2 | CCc1c(CC)c2cc3nc(cc4[nH]c(c(C)c4CC)c4[nH]c(cc5nc(cc1[nH]2)C(CCC(=O)NCCNCCN)=C5C)c(CC)c4C)C(C)=C3CCC(=O)NCCNCCN | 0.127 | 47 | 87 | 
3 | CCc1c(CC)c2cc3nc(cc4[nH]c(c(C)c4CC)c4[nH]c(cc5nc(cc1[nH]2)C(CCC(=O)N(CCO)CCO)=C5C)c(CC)c4C)C(C)=C3CCC(=O)N(CCO)CCO | 1.2 |  | 92 | 100

The next lines start with the values.

Row | C50 (Nucleic Acid [1]) [µM] | inhibition (Nucleic Acid [2]) [%] | inhibition (Nucleic Acid [3]) [%] | inhibition (Nucleic Acid [4]) [%] | SMILES
4 | 28 |  |  |  | NCCN(CCN)CCN
5 | 0.114 | 41 | 93 |  | CCc1c(CC)c2cc3nc(cc4[nH]c(c(C)c4CC)c4[nH]c(cc5nc(cc1[nH]2)C(CCC(=O)NCCN(CCN)CCN)=C5C)c(CC)c4C)C(C)=C3CCC(=O)NCCN(CCN)CCN
